Measurements: patent US20040132811A1, “Methods and products for inhibiting growth of fungal pathogens on turfgrass” (priority 2003, published 2004)
“Also recorded” adds a separate entry of the source.

System: anthracnose on bentgrass
Experiment: Evaluation of fungicides for control of anthracnose on bentgrass putting greens (field test)
Assay type: in vivo, Colletotrichum graminicola
From the text: The test was established on the 16th green at the Fianna Hills Country Club in Fort Smith, Ark. The green is more than 20 years old and was maintained at 0.156-inch mowing height and with other standard practices used at Fianna Hills. The design was a randomized complete block with 20 treatments and four replications. Individual plots were 4 feet×5 feet and isolated with a spray shield during applications. Treatments were applied on approximate 14- or 28-day schedules. Actual dates of applications were 31 May, 13 Jun., 27 Jun., 12 Jul., 26 Jul., and 9 Aug., all in 2002. Treatments were applied at 4 gal/1000 sq ft using a hand-held CO2-powered sprayer at 20 psi with a TeeJet 8004VS spray tip. The amount of active ingredient per 1000 square feet for each fungicide is provided in Table I. The C3 biocontrol is a strain of Lysobacter enzymogenes that was supplied by Dr. Gary Yuen from the University of Nebraska. The MX 567 active ingredient was first dissolved in acetone and then diluted with water. Treatments were evaluated by recording disease incidence, disease intensity, and turf quality.

[1] = 2 Aug, 2.5 g ai + .05% Tween per 1000 sq ft, days 0, 13, 27, 42, 56, 70
[2] = 19 Aug, 2.5 g ai + .05% Tween per 1000 sq ft, days 0, 13, 27, 42, 56, 70

SMILES: C[C@H](COc1cc(F)ccc1F)NC(=O)C(C#N)C(C)(C)C (stereo in doubt) [MX 567, rel-2-cyano-N-[(1R)-2-(2,5-difluorophenoxy)-1-methylethyl]-3,3-dimethylbutanamide]
- Incidence (%) of plot area with anthracnose symptoms [1]: 23%
- Intensity (0 = no disease to 4 = dead) [1]: 1.0
- Severity (incidence × intensity) [1]: 23
- Incidence (%) of plot area with anthracnose symptoms (16 Jul, 2.5 g ai + .05% Tween per 1000 sq ft, days 0, 13, 27, 42, 56, 70): 21%
- Incidence (%) of plot area with anthracnose symptoms [2]: 29%
- Intensity (0 = no disease to 4 = dead) [2]: 1.0
- Severity (incidence × intensity) [2]: 29
- Turf quality (0-9 rating scale: 0 = all dead, 9 = excellent) [2]: 6.3
- Incidence (%) of plot area with anthracnose symptoms (26 Jul, 2.5 g ai + .05% Tween per 1000 sq ft, days 0, 13, 27, 42, 56, 70): 2%
- turf quality, in words (summary of Table I): increases in turf quality; also recorded: highest turf quality
- disease severity, in words (summary of Table I versus nontreated checks): significant reductions in disease severity
